The record followed here is patent US20100311714A1, “1H-IMIDAZO[4,5-c]QUINOLINONE COMPOUNDS” (priority 2009, published 2010).

A value given as a limit tells only on which side of the number the result lay.

The test system of this experiment is PKB Ser473 phosphorylation in Rat1-myr-HA-p110 delta cells. Description: Reverse protein array, PKB Ser473 phosphorylation in Rat1-myr-HA-p110 delta cells. The conditions noted are these: Rattus norvegicus, 0.5 h, 30 minutes compound incubation, read-out: p-PKB/IC50_delta. It counts as cell-based.
With `CCOc1ccc(-c2ccc3ncc4c(c3c2)n(-c2ccc(N3CCNCC3)nc2OC)c(=O)n4C)cn1` [Example 9.1, 8-(6-Ethoxy-pyridin-3-yl)-1-(2-methoxy-6-piperazin-1-yl-pyridin-3-yl)-3-methyl-1,3-dihydro-imidazo[4,5-c]quinolin-2-one], the IC50 was determined as 32.8 nM.

Turning to `COc1nc(N2CCNCC2)ccc1-n1c(=O)n(C)c2cnc3ccc(-c4cnc(N)c(C(F)(F)F)c4)cc3c21` [Example 9.2, 8-(6-Amino-5-trifluoromethyl-pyridin-3-yl)-1-(2-methoxy-6-piperazin-1-yl-pyridin-3-yl)-3-methyl-1,3-dihydro-imidazo[4,5-c]quinolin-2-one], the IC50 turned out to be 23.9 nM.

As to `Cc1nc(N2CCN(C)C(=O)C2)ccc1-n1c(=O)n(C)c2cnc3ccc(-c4cnc(N)c(C(F)(F)F)c4)cc3c21` [Example 21.1, 8-(6-Amino-5-trifluoromethyl-pyridin-3-yl)-3-methyl-1-[2-methyl-6-(4-methyl-3-oxo-piperazin-1-yl)-pyridin-3-yl]-1,3-dihydro-imidazo[4,5-c]quinolin-2-one], the IC50 was 10.3 nM.

For the molecule `CCOc1cc(-c2ccc3ncc4c(c3c2)n(-c2ccc(OCCOC)nc2C)c(=O)n4C)cnc1COC` [Example 22.1, 8-(5-Ethoxy-6-methoxymethyl-pyridin-3-yl)-1-[6-(2-methoxy-ethoxy)-2-methyl-pyridin-3-yl]-3-methyl-1,3-dihydro-imidazo[4,5-c]quinolin-2-one], the IC50 was found to be 207 nM.

For `Cc1nc(N2CCC2)ccc1-n1c(=O)n(C)c2cnc3ccc(-c4cncc(N5CCC5)c4)cc3c21` [Example 23.1, 1-(6-Azetidin-1-yl-2-methyl-pyridin-3-yl)-8-(5-azetidin-1-yl-pyridin-3-yl)-3-methyl-1,3-dihydro-imidazo[4,5-c]quinolin-2-one], the IC50 amounted to 66.9 nM.

Regarding `COCc1ncc(-c2ccc3ncc4c(c3c2)n(-c2ccc(N3CCC3)nc2C)c(=O)n4C)cc1OC(C)C` [Example 23.2, 1-(6-Azetidin-1-yl-2-methyl-pyridin-3-yl)-8-(5-isopropoxy-6-methoxymethyl-pyridin-3-yl)-3-methyl-1,3-dihydro-imidazo[4,5-c]quinolin-2-one], the IC50 was 123 nM.

For `Cc1nc(N2CCC2)ccc1-n1c(=O)n(C)c2cnc3ccc(-c4cncc(C(C)(C)O)c4)cc3c21` [Example 23.3, 1-(6-Azetidin-1-yl-2-methyl-pyridin-3-yl)-8-[5-(1-hydroxy-1-methyl-ethyl)-pyridin-3-yl]-3-methyl-1,3-dihydro-imidazo[4,5-c]quinolin-2-one], the IC50 is 42.2 nM.

Consider `CNc1ccc(-c2ccc3ncc4c(c3c2)n(-c2ccc(N3CCC3)nc2C)c(=O)n4C)cn1` [Example 23.4, 1-(6-Azetidin-1-yl-2-methyl-pyridin-3-yl)-3-methyl-8-(6-methylamino-pyridin-3-yl)-1,3-dihydro-imidazo[4,5-c]quinolin-2-one], for which the IC50 came to 23.8 nM.

With `CCOc1cc(-c2ccc3ncc4c(c3c2)n(-c2ccc(N3CCC3)nc2C)c(=O)n4C)cnc1COC` [Example 23.5, 1-(6-Azetidin-1-yl-2-methyl-pyridin-3-yl)-8-(5-ethoxy-6-methoxymethyl-pyridin-3-yl)-3-methyl-1,3-dihydro-imidazo[4,5-c]quinolin-2-one], the IC50 turned out to be 155 nM.

Turning to `COCc1ncc(-c2ccc3ncc4c(c3c2)n(-c2ccc(N3CCC3)nc2C)c(=O)n4C)cc1OC` [Example 23.6, 1-(6-Azetidin-1-yl-2-methyl-pyridin-3-yl)-8-(5-methoxy-6-methoxymethyl-pyridin-3-yl)-3-methyl-1,3-dihydro-imidazo[4,5-c]quinolin-2-one], the IC50 amounted to 216 nM.

Turning to `CCNc1cc(-c2ccc3ncc4c(c3c2)n(-c2ccc(N3CCC3)nc2C)c(=O)n4C)cnc1CO` [Example 23.8, 1-(6-Azetidin-1-yl-2-methyl-pyridin-3-yl)-8-(5-ethylamino-6-hydroxymethyl-pyridin-3-yl)-3-methyl-1,3-dihydro-imidazo[4,5-c]quinolin-2-one], the IC50 came to 10.2 nM.

For the molecule `Cc1nc(N2CCC2)ccc1-n1c(=O)n(C)c2cnc3ccc(-c4cncc(OC(C)C)c4)cc3c21` [Example 23.9, 1-(6-Azetidin-1-yl-2-methyl-pyridin-3-yl)-8-(5-isopropoxy-pyridin-3-yl)-3-methyl-1,3-dihydro-imidazo[4,5-c]quinolin-2-one], the IC50 came out at 80.1 nM.

Take `CNc1ncc(-c2ccc3ncc4c(c3c2)n(-c2ccc(N3CC(F)(F)C3)nc2C)c(=O)n4C)cn1` [Example 24.1, 1-[6-(3,3-Difluoro-azetidin-1-yl)-2-methyl-pyridin-3-yl]-3-methyl-8-(2-methylamino-pyrimidin-5-yl)-1,3-dihydro-imidazo[4,5-c]quinolin-2-one]: the IC50 amounted to 42.6 nM.

As to `CCOc1cc(-c2ccc3ncc4c(c3c2)n(-c2ccc(N3CCCC3)nc2C)c(=O)n4C)cnc1COC` [Example 25.2, 8-(5-Ethoxy-6-methoxymethyl-pyridin-3-yl)-3-methyl-1-(2-methyl-6-pyrrolidin-1-yl-pyridin-3-yl)-1,3-dihydro-imidazo[4,5-c]quinolin-2-one], the IC50 stood at 124 nM.

Take `Cc1nc(N2CCCC2)ccc1-n1c(=O)n(C)c2cnc3ccc(-c4cncc(C(C)(C)O)c4)cc3c21` [Example 25.3, 8-[5-(1-Hydroxy-1-methyl-ethyl)-pyridin-3-yl]-3-methyl-1-(2-methyl-6-pyrrolidin-1-yl-pyridin-3-yl)-1,3-dihydro-imidazo[4,5-c]quinolin-2-one]: the IC50 came out at 25.4 nM.

Consider `Cc1nc(N(C)CCO)ccc1-n1c(=O)n(C)c2cnc3ccc(-c4cnc(N)c(C(F)(F)F)c4)cc3c21` [Example 26.1, 8-(6-Amino-5-trifluoromethyl-pyridin-3-yl)-1-{6-[(2-hydroxy-ethyl)-methyl-amino]-2-methyl-pyridin-3-yl}-3-methyl-1,3-dihydro-imidazo[4,5-c]quinolin-2-one], for which the IC50 was < 4.57 nM.

In the case of `CNc1ncc(-c2ccc3ncc4c(c3c2)n(-c2ccc(N(C)CCO)nc2C)c(=O)n4C)cn1` [Example 26.2, 1-{6-[(2-Hydroxy-ethyl)-methyl-amino]-2-methyl-pyridin-3-yl}-3-methyl-8-(2-methylamino-pyrimidin-5-yl)-1,3-dihydro-imidazo[4,5-c]quinolin-2-one], the IC50 is 10.4 nM.

As for `CNc1ncc(-c2ccc3ncc4c(c3c2)n(-c2ccc(N3CCC(O)C3)nc2C)c(=O)n4C)cn1` (centres unmarked) [Example 27.2, 1-[6-(3-Hydroxy-pyrrolidin-1-yl)-2-methyl-pyridin-3-yl]-3-methyl-8-(2-methylamino-pyrimidin-5-yl)-1,3-dihydro-imidazo[4,5-c]quinolin-2-one], the IC50 was found to be 20.7 nM.

Take `COC1CCN(c2ccc(-n3c(=O)n(C)c4cnc5ccc(-c6cncc(C(C)(C)O)c6)cc5c43)c(C)n2)C1` (centres unmarked) [Example 28.1, 8-[5-(1-Hydroxy-1-methyl-ethyl)-pyridin-3-yl]-1-[6-(3-methoxy-pyrrolidin-1-yl)-2-methyl-pyridin-3-yl]-3-methyl-1,3-dihydro-imidazo[4,5-c]quinolin-2-one]: the IC50 was found to be 39.9 nM.

With `CCNc1cc(-c2ccc3ncc4c(c3c2)n(-c2ccc(N3CC(O)C3)nc2C)c(=O)n4C)cnc1CO` [Example 29.2, 8-(5-Ethylamino-6-hydroxymethyl-pyridin-3-yl)-1-[6-(3-hydroxy-azetidin-1-yl)-2-methyl-pyridin-3-yl]-3-methyl-1,3-dihydro-imidazo[4,5-c]quinolin-2-one], the IC50 worked out at 39.7 nM.
